# Assay results taken from patent publication US5028622A, “Administration of amino acids as treatment for neurodegenerative disorders” (Ajinomoto Company, Inc., priority 1989, dated 1991).
# “Also recorded” adds a separate entry of the source. Where two headings read alike, the source gives them in different places.
# Experiments:
# [1] = tested on: glutamate dehydrogenase (GDH); conditions: literature (Yielding and Tomkins 1961); cited from earlier work
# [2] = Random blood samples during the one-year trial: plasma amino acid levels; type: in vivo, human; conditions: amino acid-treated ALS patients
# Description: (§1) Baseline blood chemistries and complete blood counts (CBC were obtained. To assure bioavailability of the BCAA, an oral test dose of the above-described mixture or placebo was given after overnight fasting at baseline. Blood samples were drawn at 0, 60 and 120 minutes after dosing for multi-chemistries, CBSs and serum ammonia and amino acid levels. In addition, a random blood sample was obtained for the above studies at three month intervals with no attention paid to time of oral dosing. Plasma amino acid levels were assayed as previously described. [A. Platakis and J. Caroscio, "Abnormal Glutamate Metabolism in Amyotrophic Lateral Sclerosis, " Ann Neurol, 1987, 22:575-579. The contents of this article are herein incorporated by reference]
# [3] = tested on: ALS; conditions: literature (Patten and Klein 1988); cited from earlier work
# [4] = clinical; conditions: human, in vivo
# Description: FIG. 4. Results of the branched-chain amino acid oral test dose. […] Blood samples were drawn at the times indicated and processed as previously described(5). Data points represent mean values from 9 patients ±SEM. * Denotes p<0.001 and p<005. Symbols refer comparisons to 0 time values according to the student's t-test.
# as §1
# [5] = target: T1, glutamate dehydrogenase (GDH) (Homo sapiens, UniProt P00367); assay: In vitro leucine activation of membrane bound GDH in post mortem brain tissue; type: biochemical; conditions: for activity at 250 µM: leucine 0.25 mM; for activity at 500 µM: leucine 0.50 mM; for activity at 1000 µM: leucine 1.0 mM; for activity at 5000 µM: leucine 5.0 mM; for activity at 10000 µM: leucine 10 mM
# T1 construct: GDH present in post mortem brain tissue; from tissue; host or cells: human post mortem brain: cerebellum (control and multisystem atrophy patient 1), frontal cortex (multisystem atrophy patient 2)
# T1 sequence (P00367 54-558): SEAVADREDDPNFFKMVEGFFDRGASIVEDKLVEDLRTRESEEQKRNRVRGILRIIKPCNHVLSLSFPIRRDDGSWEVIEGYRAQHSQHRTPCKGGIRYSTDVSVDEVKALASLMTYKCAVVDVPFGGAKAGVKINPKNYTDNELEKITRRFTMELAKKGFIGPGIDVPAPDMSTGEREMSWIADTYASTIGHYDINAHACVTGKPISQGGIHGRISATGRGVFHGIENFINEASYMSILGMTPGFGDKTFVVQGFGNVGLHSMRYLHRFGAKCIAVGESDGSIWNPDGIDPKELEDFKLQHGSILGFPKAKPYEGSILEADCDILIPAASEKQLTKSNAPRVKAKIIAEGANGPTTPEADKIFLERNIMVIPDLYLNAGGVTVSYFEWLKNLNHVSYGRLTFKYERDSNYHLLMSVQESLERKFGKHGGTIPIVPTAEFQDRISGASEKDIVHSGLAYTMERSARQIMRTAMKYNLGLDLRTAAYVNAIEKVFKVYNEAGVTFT
# Description: (Table 4) Tissue preparation and GDH determinations were done according to methods previously reported. [A. D. Colon, A. Plaitakis, S. Berl, and D. D. Clark. "The purification and characterization of soluble and particulate Glutamate Dehydrogenase in Rat Brain," Neurochemistry, 1986, 46:1811-1819. The contents of this publication are herein incorporated by reference] […] FIG. 4.
# [6] = in vivo; cited from earlier work
# [7] = Control Patient Cerebellum, read-out: Percent Baseline GDH Activity
# [8] = Multisystem Atrophy Multineuron Disease Patient 1 Cerebellum, read-out: Percent Baseline GDH Activity
# [9] = Multisystem Atrophy Multineuron Disease Patient 2 Frontal Cortex, read-out: Percent Baseline GDH Activity
smiles,measurement,setting,value
CC[C@H](C)[C@H](N)C(=O)O [L-isoleucine],activation of glutamate dehydrogenase in vitro,[1],allosterically activate; also recorded: can be activated
same,plasma level higher than that of placebo-treated patients,[2],93%
same,status of ALS patients treated with it as placebo substituted for L-threonine,[3],revert to previous status
same,increase in plasma level following oral dosing,[4]; 60 min,393%
same,increase in plasma level following oral dosing,[4]; 120 min,183%
CC(C)C[C@H](N)C(=O)O [L-leucine],activity at 250 µM,[5]; [7],117%
same,activity at 500 µM,[5]; [7],135%
same,activity at 1000 µM,[5]; [7],143%
same,activity at 2500 µM,"[5]; Control Patient Cerebellum, leucine 2.5 mM, read-out: Percent Baseline GDH Activity",155%
same,activity at 5000 µM,[5]; [7],155%
same,activity at 10000 µM,[5]; [7],160%
same,activity at 250 µM,[5]; [8],117%
same,activity at 500 µM,[5]; [8],153%
same,activity at 1000 µM,[5]; [8],186%
same,activity at 5000 µM,[5]; [8],176%
same,activity at 10000 µM,[5]; [8],176%
same,activity at 150 µM,"[5]; Multisystem Atrophy Multineuron Disease Patient 2 Frontal Cortex, leucine 0.15 mM, read-out: Percent Baseline GDH Activity",122%
same,activity at 250 µM,[5]; [9],128%
same,activity at 500 µM,[5]; [9],141%
same,lowest concentration effective in producing increases in GDH activity,"[5]; post mortem brain tissue, effect concentration dependent",0.15 mM
same,activation of glutamate dehydrogenase in vitro,[1],allosterically activate; also recorded: can be activated
same,plasma level higher than that of placebo-treated patients,[2],112%
same,status of ALS patients treated with it as placebo substituted for L-threonine,[3],revert to previous status
same,increase in plasma level following oral dosing,[4]; 60 min,300%
same,increase in plasma level following oral dosing,[4]; 120 min,192%
same,concentration at 1 h,[4]; po,~450 µM
same,concentration at 2 h,[4]; po,~300 µM
same,effect on plasma and CSF levels of the other two BCAAs,[6],severely depress
CC(C)[C@H](N)C(=O)O [L-valine],activation of glutamate dehydrogenase in vitro,[1],allosterically activate
same,plasma level higher than that of placebo-treated patients,[2],61%
same,increase in plasma level following oral dosing,[4]; 60 min,95%
same,increase in plasma level following oral dosing,[4]; 120 min,53%
